The values that follow come from patent US20240050447A1 (Propella Therapeutics, Inc., priority 2020, published 2024).

The structures appear in SMILES notation. Where “and” joins values, the source holds several entries; their conditions need not be identical. Identical values can stand only once. Like-named read-outs stand apart in the source and are kept apart here.

Data set [1] can be described thus: in vivo. As to conditions: male, rat, plasma.
Data set [2] can be described thus: in vivo. As to conditions: male, beagle, dog, plasma; for AUC(0-inf): dogs.
A short description of data set [3]: in vivo. As to conditions: Beagle, dog; for half-life: iv.
Protocol: Nominal dose values and sampling times were used for calculations. For the purpose of PK calculations, any concentration reported as “BLQ” was set equal to zero.
Cmax and the corresponding Tmax values were determined by direct assessment of the concentration versus time data. All AUC calculations were performed using the linear trapezoidal rule.
As data permitted, the terminal elimination rate constant (lambda z, λz) was calculated.
To optimize the reliability of the identified terminal phase (λz), where possible, the data points used to define the λz were manually selected.
The AUCINF value was calculated as: AUClast+(Clast/λz). CL/F was calculated as: Dose per dosing interval/(AUCINF) and Vz/F was calculated as: Dose per dosing interval/(AUCINF*λz). Terminal t1/2 was calculated as: ln(2)/λz.
Mean plasma concentration versus time data are presented with standard deviation (SD) and percent coefficient of variation (CV %) and reported to three significant figures. PK parameter values are presented with mean, SD, and CV %. Individual Tmax values were reported to two significant figures, while all other values and descriptive statistics are reported to three significant figures.
A short description of data set [4]: in vivo. As to conditions: male, cynomolgus monkey, plasma.
A short description of data set [5]: PK of single IM abiraterone decanoate (and oral abiraterone acetate) in chemically castrated monkeys (Example 10). As to conditions: abiraterone in plasma.
For data set [6] the following is noted: dogs (N=3); Group 2: IM 77 mg/kg abiraterone isocaproate, 158 mg/ml in 90% corn oil/10% benzyl alcohol; plasma analyte = label; mean.
For data set [7] the following is noted: male, rat, in vivo, im.
Protocol: (§1) Several formulations were considered in the initial rat study.
(§2) The above formulations were administered to either rats or dogs as an IV injection or as IM injections to the hind leg(s) of each animal.
The conditions of data set [8]: dog, in vivo.
Data set [9] in a line: PK modelling and deconvolution of abiraterone plasma profiles, monkeys (Example 7D).
Description: (§3) Weighting was included, dependent on the pattern of residuals (residual Y versus predicted concentration or time) and precision of the estimated parameters. The appropriate model was selected based on: (i) visual inspection of the model fit to the data (ii) the lowest value of Akaike Information Criterion (AIC) and (iii) precision of the estimated parameters (CV). Systemic clearance (CL) and apparent volume of distribution (Vss) were derived from the exponential functions.
(§4) Deconvolution: The rate and extent of input from an intramuscular administration was simulated by deconvolution using WinNonlin Phoenix Version 8.2. Deconvolution is based on linear systems analysis and is defined by the convolution integral: G(t)=R(t)*H(t). G(t) is the measured plasma concentration profile after intramuscular dosing, H(t) is represented by the exponential function described in Section 3.2 and R(t), the rate of input from the IM depot over time, is derived by deconvolution of the above expression. The slope of the input rate versus time generates the input rate constant (Koi). Integration of input rate versus time generates the cumulative input function and an estimate of absolute bioavailability.
The nature of data set [10]: in vivo. As to conditions: dog, plasma, intramuscular.
Description: as §3, §4
A short description of data set [11]: PK modelling and deconvolution of abiraterone plasma profiles, dogs (Example 7D).
Description: as §3, §4
Data set [12] can be described thus: PK modelling and deconvolution of abiraterone plasma profiles, rats (Example 7D).
Description: as §3, §4
The nature of data set [13]: in vivo. As to conditions: monkey, plasma, intramuscular, 90 mg/kg.
Description: as §3, §4
Data set [14] is described as follows: in vivo. As to conditions: rat, plasma, intramuscular, 90 mg/kg.
Description: as §3, §4
For data set [15] the following is noted: human.
Description: (§5) CL and Vss in man were predicted from CL and Vss in animals by an allometric approach. Vss=a·W^x where a is the intercept, W is bodyweight and x is the allometric exponent; then, log Vss=x·log W+log a (derived from a log-log plot of body weight versus Vss in the 3 species). […] The rate and extent of input was derived by deconvolution.
A short description of data set [16]: Allometric scaling and prediction of plasma profile of abiraterone in man (Example 7D).
Description: as §5
The nature of data set [17]: Plasma PK in rats after IM injection of abiraterone or abiraterone acetate formulations (Example 5A). As to conditions: male, rat, group mean.
Protocol: as §1, §2
The mark [18] stands for this setting: single IM 10 mg/kg, Geometric Mean (N=3).
Where [19] appears, read: single IM 10 mg/kg, Median (N=3).
Setting [20] is: single IM 10 mg/kg, individual animals.
Setting [21] is: single IM 30 mg/kg, Geometric Mean (N=3).
Where [22] appears, read: single IM 30 mg/kg, Median (N=3).
[23] abbreviates: single IM 30 mg/kg, individual animals.
Setting [24] is: single IM 100 mg/kg, Mean (N=3).
The mark [25] stands for this setting: single IM 100 mg/kg, Median (N=3).
Where [26] appears, read: single IM 100 mg/kg, individual animals.
The mark [27] stands for this setting: Group 3: IM abiraterone suspension in castor oil (62.5 mg/ml).
The mark [28] stands for this setting: Group 4: IM abiraterone suspension, sodium phosphate buffer, 0.1% Tween (62.5 mg/ml).

Turning to `CCCCCCCCCC(=O)O[C@H]1CC[C@@]2(C)C(=CC[C@@H]3[C@@H]2CC[C@]2(C)C(c4cccnc4)=CC[C@@H]32)C1` [Abiraterone Decanoate, Abiraterone decanoate], the half-life (usually the time needed for the level to fall by half in the phase considered) was 792 h in the data set “in vivo [1]” (im, 90 mg/kg); 3.2 h in “in vivo [1]” (iv, […]); 161 h in “in vivo [2]” (im, 87 mg/kg); 0.86 h in “in vivo [3]” ([…]); 240 h in “in vivo [4]” (im, 90 mg/kg); 2.27 h in the data set “in vivo [4]” (iv, […]). The CL/F (commonly clearance divided by bioavailability, as obtained after extravascular dosing) in “in vivo [2]” (im, 87 mg/kg) is 207 mL/min/kg. The Vd/F (in general, the volume of distribution divided by bioavailability) in “in vivo [2]” (im, 87 mg/kg) was determined as 2850 L/kg. In the data set “in vivo [3]” (im, mean decanoate Tmax, range between the two IM formulations), the Tmax (as a rule, the time from dosing to the highest level) lay in the range of 2.64 to 6.24 h. The AUC0-t in [5] (setting [18]) is 196 ng·days/mL; in data set [5] (single IM 10 mg/kg, Max (N=3)) it was 225 ng·days/mL; in data set [5] (single IM 10 mg/kg, Mean (N=3)), 198 ng·days/mL; in [5] (setting [19]) it was 212 ng·days/mL; in [5] (single IM 10 mg/kg, Min (N=3)) it was 157 ng·days/mL; in data set [5] (setting [20]) it was 225 ng·days/mL and 157 ng·days/mL and 212 ng·days/mL. For the same compound, the AUC0-t was 330 ng·days/mL in [5] (setting [21]); 449 ng·days/mL in data set [5] (single IM 30 mg/kg, Max (N=3)); 338 ng·days/mL in [5] (single IM 30 mg/kg, Mean (N=3)); 285 ng·days/mL in data set [5] (setting [22]); 281 ng·days/mL in [5] (single IM 30 mg/kg, Min (N=3)); 281 ng·days/mL and 285 ng·days/mL and 449 ng·days/mL in data set [5] (setting [23]). For the same compound, the AUC0-t in data set [5] (single IM 100 mg/kg, Max (N=3)) was 1760 ng·days/mL; in data set [5] (setting [24]), 1410 ng·days/mL; in [5] (setting [25]) it was 1270 ng·days/mL; in data set [5] (single IM 100 mg/kg, Min (N=3)) it was 1200 ng·days/mL; in [5] (setting [26]), 1270 ng·days/mL and 1200 ng·days/mL and 1760 ng·days/mL. Moreover, the “AUC0-∞” value in data set [5] (setting [18]) is 209 ng·days/mL; in data set [5] (single IM 10 mg/kg, Max (N=3)) it was 236 ng·days/mL; in [5] (single IM 10 mg/kg, Mean (N=3)) it was 212 ng·days/mL; in data set [5] (setting [19]), 235 ng·days/mL; in [5] (single IM 10 mg/kg, Min (N=3)), 166 ng·days/mL; in data set [5] (setting [20]), 235 ng·days/mL and 166 ng·days/mL and 236 ng·days/mL. In addition, the “AUC0-∞” value in data set [5] (setting [21]) was 347 ng·days/mL; in [5] (single IM 30 mg/kg, Max (N=3)), 492 ng·days/mL; in data set [5] (single IM 30 mg/kg, Mean (N=3)), 358 ng·days/mL; in data set [5] (setting [22]), 293 ng·days/mL; in [5] (single IM 30 mg/kg, Min (N=3)), 290 ng·days/mL; in [5] (setting [23]) it was 293 ng·days/mL and 290 ng·days/mL and 492 ng·days/mL. Also, the “AUC0-∞” value in data set [5] (single IM 100 mg/kg, Max (N=3)) was 1770 ng·days/mL; in data set [5] (setting [24]) it was 1430 ng·days/mL; in data set [5] (setting [25]) it was 1330 ng·days/mL; in data set [5] (single IM 100 mg/kg, Min (N=3)), 1200 ng·days/mL; in data set [5] (setting [26]) it was 1330 ng·days/mL and 1200 ng·days/mL and 1770 ng·days/mL.

On to `CC(C)CCC(=O)O[C@H]1CC[C@@]2(C)C(=CC[C@@H]3[C@@H]2CC[C@]2(C)C(c4cccnc4)=CC[C@@H]32)C1` [Abiraterone Isocaproate, Abiraterone isocaproate], for which the Cmax – broadly, the highest concentration seen after dosing – in data set [6] is given as 106 ng/mL.

As to `CC(=O)O[C@H]1CC[C@@]2(C)C(=CC[C@@H]3[C@@H]2CC[C@]2(C)C(c4cccnc4)=CC[C@@H]32)C1` [Abiraterone acetate, (3β)-17-(3-Pyridyl)androsta-5, acetate], the Tmax in [7] came to 8.00 h. Moreover, in data set [7] (35 mg/kg), the AUClast was determined as 934 ng·h/mL, the Cmax is listed as 21.6 ng/mL and the Tmax is 39.2 h. Further, in [8], the injection site tolerability entry is listed as “irritating to the dogs at the injection site”. In addition, in data set [8] (iv, 10 mg/kg), the AUCINF worked out at 5990 ng·h/mL, the AUCINF/Dose was found to be 599, the AUClast was 5920 ng·h/mL and the AUClast/Dose came to 592. Further, the “time out to which blood levels were measurable” value in data set [8] (male) was 504 h.

For the compound `C[C@]12CC[C@H](O)CC1=CC[C@@H]1[C@@H]2CC[C@]2(C)C(c3cccnc3)=CC[C@@H]12` [Abiraterone, (3β)-17-(pyridin-3-yl)androsta-5,16-dien-3-ol], the F in data set [9] (Monkeys, IM bioavailability of abiraterone from abiraterone decanoate, deconvolution) is recorded as 14%; in [11] (Dogs, IM bioavailability of abiraterone from abiraterone decanoate, deconvolution), 56%; in data set [12] (Rats, IM bioavailability of abiraterone from abiraterone decanoate, deconvolution), 19%. Also, the Vd – broadly, a proportionality between amount in the body and measured concentration, not a real space – in data set [9] (monkey, plasma, iv, […]) is 5.73 L/kg; in [11] (dog, plasma, iv, […]) it was 14.2 L/kg; in [12] (rat, plasma, iv, […]), 22.3 L/kg. Also, the clearance (usually the rate of elimination divided by the concentration) is 43 mL/min/kg in data set [9] (monkey, plasma, iv, […]); 108 mL/min/kg in data set [11] (dog, plasma, iv, […]); 190 mL/min/kg in [12] (rat, plasma, iv, […]). For the same compound, the half-life in “in vivo [10]” was 319 h; in the data set “in vivo [2]” (im, 77 mg/kg, t1/2, dogs (N=3), Group 2: IM 77 mg/kg abiraterone isocaproate, 158 mg/ml in 90% corn oil/10% benzyl alcohol, plasma analyte = label, mean), 223 h; in “in vivo [13]” it was 325 h; in “in vivo [3]” (1 mg/kg, mean t1/2), 2.1 h; in the data set “in vivo [14]” it was 325 h. Also, the AUCINF in [6] turned out to be 275 ng·days/mL. The AUClast in data set [6] is 266 ng·days/mL. The t1/2 in data set [6] amounted to 223 h. Besides, the AUC(0-inf) (as a rule, the area under the concentration-time curve extrapolated to infinity) in the data set “in vivo [2]” (im, 60 mg/kg, mean abiraterone AUCINF after IM, corrected for dose and time units, 60 mg/kg IM administration (abiraterone decanoate)) came to 70.4 ng·h/mL; in “in vivo [2]” (im, 60 mg/kg, mean abiraterone AUCINF after IM, corrected for dose and time units, 60 mg/kg IM administration of abiraterone isocaproate) it was 114 ng·h/mL; in the data set “in vivo [2]” (iv, 0.78 mg/kg, mean abiraterone AUCINF after IV, corrected for dose, IV abiraterone isocaproate (0.78 mg/kg as abiraterone)), 131 ng·h/mL; in “in vivo [3]” (im, mean abiraterone AUCINF after IM, corrected for dose and time units) it was 104 ng·h/mL. For the same compound, the bioavailability – broadly, the share of a dose that reaches the circulation, judged against a reference dose that is usually intravenous – came to 87% in the data set “in vivo [2]” (im, 77 mg/kg); 42% in the data set “in vivo [2]” (im, 87 mg/kg); 72% in the data set “in vivo [3]” (im, absolute bioavailability for abiraterone). Moreover, in data set [15], the “t1/2 (absorption half-life), predicted in man” value is 325 h. The “Vss, predicted in man” value in data set [16] (allometric scaling from rats, dogs and monkeys) is given as 437 L. The “K01, predicted in man” value in data set [16] (from deconvolution of animal IM/IV data) is 0.00213 h⁻¹. For the same compound, the “F, predicted in man” value in data set [16] (value of dogs used) is 56%. Moreover, the values for the Cmax in data set [17] (setting [27]) and in data set [17] (setting [28]) were 13.3 ng/mL and 1.43 ng/mL, respectively. In addition, the values for the Tmax in data set [17] (setting [27]) and in data set [17] (setting [28]) were 2.6 h and 1.67 h, respectively.
